For one experiment, the system named is SERT Ala56. In kind it is cell-based, human. The conditions noted are these: homozygous Ala56 cells preincubated for various times at 37° C. with 10 μM 8BrcGMP. The method, then: (§1) Homozygous Ala56 cells (10^6/tube) were preincubated for various times at 37° C. with 10 μM 8BrcGMP prior to [^3H]5-HT transport assays.
(§2) Functional Analysis of Gly56Ala Activity and Regulation. EBV-transformed lymphocyte cell lines from AGRE or Tufts/Vanderbilt autism families carrying either the Gly56 or 56Ala alleles were obtained from the NIMH Human Genetics Initiative Repository (www.nimhgenetics.org/) at Rutgers University. […] Lymphocytes were pelleted at 1500 rpm, 5 min and washed with KRH assay buffer. A total of 1×10^6 cells in triplicate were pre-warmed (37° C.) in a shaking water bath (10 min) in 12×75 polypropylene tubes in KRH buffer containing 100 μM pargyline and 100 μM ascorbic acid. After a 5-min incubation with [^3H]5-HT (20 nM) at 37° C., uptake assays were terminated by immersion on ice, and uptake in pelleted, 1% SDS-extracted cells quantitated by scintillation spectrometry. Specific 5-HT uptake was determined by subtracting the amount of [^3H]5-HT accumulated in the presence of 10 μM paroxetine (SmithKline Beecham). [^3H]L-glutamate transport assays were conducted as described for [^3H]5-HT except using 100 nM substrate and defining nonspecific uptake with parallel accumulation acquired at 4° C.

The subject of the next experiment is Gly56 SERT. The class given is cell-based, human. The settings on record: coincubation with PKG inhibitor H8 at 10 μM; data not shown. The method, then:
as §1, §2

From patent publication US20070037194A1, “Allelic variation in the serotonin transporter (SERT) as an indicator of autism” (priority 2005, published 2007) come the findings set out here.

For the molecule `Nc1nc2c(nc(Br)n2[C@@H]2O[C@@H]3COP(=O)(O)O[C@H]3[C@H]2O)c(=O)[nH]1` [8BrcGMP], the “sensitivity of SERT Ala56 [3H]5-HT transport to 8BrcGMP” value with SERT Ala56 was “lacks sensitivity”. On to `CNCCNS(=O)(=O)c1cccc2cnccc12` [H8], for which, in the experiment on Gly56 SERT, the “block of 8BrcGMP effects on Gly56 SERT” value is reported as “completely blocked”.
